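Cells were grown in 96-well plates and exposed to each compound for 48 hours at five concentrations; endpoints were interpolated linearly between bracketing concentrations, or set to the highest concentration if not reached. GI50 = concentration required for 50% inhibition of growth. TGI denotes the concentration required for complete inhibition of growth.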
Tests used:
Test in all cases: NCI anticancer screen, dose series, 48 h
786-0 renal = test system: 786-0 renal
A498 renal = test system: A498 renal
A549 NSCLC = test system: A549 NSCLC
ACHN renal = test system: ACHN renal
BT-549 breast = test system: BT-549 breast
CAKI-1 renal = test system: CAKI-1 renal
CCRF-CEM leukemia = test system: CCRF-CEM leukemia
COLO 205 colon = test system: COLO 205 colon
DU-145 prostate = test system: DU-145 prostate
EKVX NSCLC = test system: EKVX NSCLC
HCC-2998 colon = test system: HCC-2998 colon
HCT-116 colon = test system: HCT-116 colon
HCT-15 colon = test system: HCT-15 colon
HL-60(TB) leukemia = test system: HL-60(TB) leukemia
HOP-62 NSCLC = test system: HOP-62 NSCLC
HOP-92 NSCLC = test system: HOP-92 NSCLC
HS 578T breast = test system: HS 578T breast
HT29 colon = test system: HT29 colon
IGROV1 ovarian = test system: IGROV1 ovarian
K-562 leukemia = test system: K-562 leukemia
KM12 colon = test system: KM12 colon
LOX IMVI melanoma = test system: LOX IMVI melanoma
M14 melanoma = test system: M14 melanoma
MCF7 breast = test system: MCF7 breast
MDA-MB-231 breast = test system: MDA-MB-231 breast
MDA-MB-435 = test system: MDA-MB-435
NCI-H226 lung = test system: NCI-H226 lung
NCI-H23 lung = test system: NCI-H23 lung
NCI-H460 lung = test system: NCI-H460 lung
NCI-H522 lung = test system: NCI-H522 lung
NCI/ADR-RES ovarian = test system: NCI/ADR-RES ovarian
OVCAR-3 ovarian = test system: OVCAR-3 ovarian
OVCAR-5 ovarian = test system: OVCAR-5 ovarian
OVCAR-8 ovarian = test system: OVCAR-8 ovarian
PC-3 prostate = test system: PC-3 prostate
RPMI-8226 leukemia = test system: RPMI-8226 leukemia
RXF 393 renal = test system: RXF 393 renal
SF-268 CNS = test system: SF-268 CNS
SF-295 CNS = test system: SF-295 CNS
SF-539 CNS = test system: SF-539 CNS
SK-MEL-2 melanoma = test system: SK-MEL-2 melanoma
SK-MEL-28 melanoma = test system: SK-MEL-28 melanoma
SK-MEL-5 melanoma = test system: SK-MEL-5 melanoma
SK-OV-3 ovarian = test system: SK-OV-3 ovarian
SN12C renal = test system: SN12C renal
SNB-19 CNS = test system: SNB-19 CNS
SNB-75 CNS = test system: SNB-75 CNS
SW-620 colon = test system: SW-620 colon
T-47D breast = test system: T-47D breast
TK-10 renal = test system: TK-10 renal
U251 CNS = test system: U251 CNS
UACC-257 melanoma = test system: UACC-257 melanoma
UACC-62 melanoma = test system: UACC-62 melanoma
UO-31 renal = test system: UO-31 renal

## CCOC(=O)C1=C(C)NC2SC(=O)/C(=C\c3ccccc3O)N2C1c1ccccc1 (stereo not drawn)
786-0 renal
  GI50: 28.6 µM
  TGI: > 100 µM
A498 renal
  GI50: 11.1 µM
  TGI: 33.9 µM
A549 NSCLC
  GI50: 27.2 µM
  TGI: > 100 µM
ACHN renal
  GI50: 28.5 µM
  TGI: 81.4 µM
BT-549 breast
  GI50: 23.3 µM
  TGI: 59.8 µM
CAKI-1 renal
  GI50: 36.8 µM
  TGI: > 100 µM
CCRF-CEM leukemia
  GI50: 10.2 µM
  TGI: 75.2 µM
COLO 205 colon
  GI50: 23.2 µM
  TGI: 72.8 µM
DU-145 prostate
  GI50: 30.5 µM
  TGI: > 100 µM
EKVX NSCLC
  GI50: 34.1 µM
  TGI: > 100 µM
HCC-2998 colon
  GI50: 26.5 µM
  TGI: 64.8 µM
HCT-116 colon
  GI50: 23.6 µM
  TGI: 63.6 µM
HCT-15 colon
  GI50: 30.5 µM
  TGI: > 100 µM
HL-60(TB) leukemia
  GI50: 19.6 µM
  TGI: 54.4 µM
HOP-62 NSCLC
  GI50: 31.4 µM
  TGI: > 100 µM
HOP-92 NSCLC
  GI50: 20.8 µM
  TGI: 43.2 µM
HS 578T breast
  GI50: 17.4 µM
  TGI: 50.2 µM
HT29 colon
  GI50: 19.5 µM
  TGI: 41.4 µM
IGROV1 ovarian
  GI50: 25 µM
  TGI: 64.1 µM
K-562 leukemia
  GI50: 26.6 µM
  TGI: > 100 µM
KM12 colon
  GI50: 16.6 µM
  TGI: 43.5 µM
LOX IMVI melanoma
  GI50: 18.4 µM
  TGI: 34 µM
M14 melanoma
  GI50: 24 µM
  TGI: 65.5 µM
MCF7 breast
  GI50: 86 µM
  TGI: > 100 µM
MDA-MB-231 breast
  GI50: 33.8 µM
  TGI: 88.4 µM
MDA-MB-435
  GI50: 19.6 µM
  TGI: 62.5 µM
NCI-H226 lung
  GI50: 29 µM
  TGI: 90.4 µM
NCI-H23 lung
  GI50: 24.5 µM
  TGI: 53.5 µM
NCI-H460 lung
  GI50: 24.3 µM
  TGI: 79.4 µM
NCI-H522 lung
  GI50: 26.2 µM
  TGI: 76.3 µM
NCI/ADR-RES ovarian
  GI50: 23.3 µM
  TGI: 60.3 µM
OVCAR-3 ovarian
  GI50: 20.4 µM
  TGI: 49.9 µM
OVCAR-5 ovarian
  GI50: 63 µM
  TGI: > 100 µM
OVCAR-8 ovarian
  GI50: 24.6 µM
  TGI: 61.6 µM
PC-3 prostate
  GI50: 26.5 µM
  TGI: 74.1 µM
RPMI-8226 leukemia
  GI50: 18.6 µM
  TGI: 53.6 µM
RXF 393 renal
  GI50: 19 µM
  TGI: 46.9 µM
SF-268 CNS
  GI50: 29.7 µM
  TGI: > 100 µM
SF-295 CNS
  GI50: 27.2 µM
  TGI: > 100 µM
SF-539 CNS
  GI50: 35.5 µM
  TGI: > 100 µM
SK-MEL-2 melanoma
  GI50: 22.2 µM
  TGI: 59.3 µM
SK-MEL-28 melanoma
  GI50: 20.5 µM
  TGI: 56.8 µM
SK-MEL-5 melanoma
  GI50: 17.2 µM
  TGI: 32.5 µM
SK-OV-3 ovarian
  GI50: 52.8 µM
  TGI: > 100 µM
SN12C renal
  GI50: 16.6 µM
  TGI: 30.5 µM
SNB-19 CNS
  GI50: 31.5 µM
  TGI: > 100 µM
SNB-75 CNS
  GI50: 20.4 µM
  TGI: 70.8 µM
SW-620 colon
  GI50: 38.5 µM
  TGI: > 100 µM
T-47D breast
  GI50: 16.1 µM
  TGI: 51.7 µM
TK-10 renal
  GI50: 21.3 µM
  TGI: 49 µM
U251 CNS
  GI50: 21.5 µM
  TGI: 49.6 µM
UACC-257 melanoma
  GI50: 42.4 µM
  TGI: > 100 µM
UACC-62 melanoma
  GI50: 18 µM
  TGI: 41.8 µM
UO-31 renal
  GI50: 21.9 µM
  TGI: 66.8 µM

Reference: PubChem BioAssay (NCI)
